{
  "source": "patent US11214803B2",
  "about": "“Modulators of YAP1 expression” (Ionis Pharmaceuticals, Inc., priority 2019, dated 2022)",
  "key": {"[1]": {"assay": "Tolerability in CD-1 mice, body and organ weights (Example 19)", "format": "in vivo", "details": "male CD-1 mice, 50 mg/kg s.c. twice a week for four weeks (8 treatments), end of study (day 26)", "experimental": "Groups of four male CD-1 mice at 4-6 weeks of age (obtained from Charles River) were injected subcutaneously twice a week for four weeks (for a total of 8 treatments) with 50 mg/kg of modified oligonucleotides. One group of male CD-1 mice was injected with PBS. Mice were euthanized on day 26 post start of treatment (24 hrs following the final administration).\nBody weights of CD-1 mice were measured at the end of the study, and the average body weight for each group is presented in the table below. Modified oligonucleotides that caused any changes in organ weights outside the expected range for modified oligonucleotides were excluded from further studies."}, "SNU-1076 cells": {"tested_on": "SNU-1076 cells", "assay": "Cell proliferation assay in SNU-1076 cells, CellTiter-Glo (Example 45)", "format": "cell-based, human", "details": "free uptake, approximately 144 hours", "experimental": "Modified oligonucleotides described in the studies above were tested at various doses in upper aerodigestive tract/laryngeal squamous cell carcinoma line SNU-1076. A control oligonucleotide 792169, described herein above, was also tested.\nCultured SNU-1076 cells at a density of 1000 cells/well were treated using free uptake with modified oligonucleotides diluted to concentrations described in the tables below. After approximately 144 hours, cell proliferation was measured using the luminescent cell viability CellTiter-Glo® 2.0 Assay (Promega). Results are presented in the tables below as percent control of the amount of luminescence in samples treated with modified oligonucleotides relative to untreated control cells (% UTC)."}, "SCC-4 cells": {"tested_on": "SCC-4 cells", "assay": "Cell proliferation assay in SCC-4 cells, CellTiter-Glo (Example 39)", "format": "cell-based, human", "details": "free uptake, approximately 144 hours", "experimental": "Modified oligonucleotides described in the studies above were tested at various doses in tongue squamous cell carcinoma cell line SCC 4. A control oligonucleotide 792169, described herein above, was also tested.\nCultured SCC-4 cells at a density of 1000 cells/well were treated using free uptake with modified oligonucleotides diluted to concentrations described in the tables below. After approximately 144 hours, cell proliferation was measured using the luminescent cell viability CellTiter-Glo® 2.0 Assay (Promega). Results are presented in the tables below as percent control of the amount of luminescence in samples treated with modified oligonucleotides relative to untreated control cells (% UTC)."}, "Yap1 mRNA [2]": {"tested_on": "Yap1 mRNA", "assay": "Yap1 mRNA in SCC-15 cells, RNA analysis (Example 41)", "format": "cell-based, human", "details": "free uptake, approximately 48 hours", "experimental": "(§1) Modified oligonucleotides described in the studies above were tested at various doses in tongue squamous cell carcinoma cell line SCC-15. A control oligonucleotide 792169, described herein above, was also tested.\nCultured SCC-15 cells at a density of 5000 cells per well were treated using free uptake with modified oligonucleotides diluted to concentrations described in the tables below. After approximately 48 hours, Yap1 mRNA levels were measured as previously described using the Human Yap1 primer-probe set RTS4814. Yap1 mRNA levels were normalized to actin-beta content, as measured by primer probe set RTS5002. Results are presented in the tables below as percent control of the amount of Yap1 mRNA relative to untreated control cells (% UTC)."}, "SCC-15 cells": {"tested_on": "SCC-15 cells", "assay": "Cell proliferation assay in SCC-15 cells, CellTiter-Glo (Example 41)", "format": "cell-based, human", "details": "free uptake, approximately 144 hours", "experimental": "as §1\nCultured SCC-15 cells at a density of 1000 cells/well were treated using free uptake with modified oligonucleotides diluted to concentrations described in the tables below. After approximately 144 hours, cell proliferation was measured using the luminescent cell viability CellTiter-Glo® 2.0 Assay (Promega). Results are presented in the tables below as percent control of the amount of luminescence in samples treated with modified oligonucleotides relative to untreated control cells (% UTC)."}, "Yap1 mRNA [3]": {"tested_on": "Yap1 mRNA", "assay": "Yap1 mRNA in NCI H292 cells, RNA analysis (Example 32)", "format": "cell-based, human", "details": "free uptake, approximately 48 hours", "experimental": "Modified oligonucleotides described in the studies above were tested at various doses in mucoepidermoid pulmonary carcinoma cell line […]. A control oligonucleotide 792169 was also tested.\nCultured NCI H292 cells at a density of 5000 cells per well were treated using free uptake with modified oligonucleotides diluted to concentrations described in the tables below. After approximately 48 hours, Yap1 mRNA levels were measured as previously described using the Human Yap1 primer-probe set RTS4814. Yap1 mRNA levels were normalized to actin-beta content, as measured by primer probe set RTS5002. Results are presented in the tables below as percent control of the amount of Yap1 mRNA relative to untreated control cells (% UTC)."}, "BICR-22 cells": {"tested_on": "BICR-22 cells", "assay": "Cell proliferation assay in BICR-22 cells, CellTiter-Glo (Example 35)", "format": "cell-based, human", "details": "free uptake, approximately 144 hours", "experimental": "Modified oligonucleotides described in the studies above were tested at various doses in tongue squamous carcinoma (lymph node metastasis) cell line BICR-22. A control oligonucleotide 792169, described herein above, was also tested.\nCultured BICR-22 cells at a density of 1000 cells/well were treated using free uptake with modified oligonucleotides diluted to concentrations described in the tables below. After approximately 144 hours, cell proliferation was measured using the luminescent cell viability CellTiter-Glo® 2.0 Assay (Promega). Results are presented in the tables below as percent control of the amount of luminescence in samples treated with modified oligonucleotides relative to untreated control cells (% UTC)."}, "Yap1 mRNA [4]": {"tested_on": "Yap1 mRNA", "assay": "Yap1 mRNA in SCC-25 cells, RNA analysis (Example 42)", "format": "cell-based, human", "details": "free uptake, approximately 48 hours", "experimental": "Modified oligonucleotides described in the studies above were tested at various doses in tongue squamous cell carcinoma cell line SCC-25. A control oligonucleotide 792169, described herein above, was also tested.\nCultured SCC-25 cells at a density of 5000 cells per well were treated using free uptake with modified oligonucleotides diluted to concentrations described in the tables below. After approximately 48 hours, Yap1 mRNA levels were measured as previously described using the Human Yap1 primer-probe set RTS4814. Yap1 mRNA levels were normalized to actin-beta content, as measured by primer probe set RTS5002. Results are presented in the tables below as percent control of the amount of Yap1 mRNA relative to untreated control cells (% UTC)."}},
  "data": [
    {"substance": "1198440 (AAGTGTATGTCAGAAG; cEt, 2'-MOE, 5-methylcytosine, phosphorothioate modifications, further chemistry not given here) [compound 1198440]", "values": [
      {"measurement": "Kidney weight", "setting": "[1]", "value": 0.46, "unit": "g"},
      {"measurement": "Liver weight", "setting": "[1]", "value": 1.97, "unit": "g"},
      {"measurement": "Spleen weight", "setting": "[1]", "value": 0.18, "unit": "g"},
      {"measurement": "body weight", "setting": "[1]", "value": 35, "unit": "g"},
      {"measurement": "Antiproliferative effect (cell proliferation, luminescence)", "setting": "SNU-1076 cells; 0.04 μM", "value": 99, "unit": "% UTC"},
      {"measurement": "Antiproliferative effect (cell proliferation, luminescence)", "setting": "SNU-1076 cells; 0.2 μM", "value": 87, "unit": "% UTC"},
      {"measurement": "Antiproliferative effect (cell proliferation, luminescence)", "setting": "SNU-1076 cells; 1 μM", "value": 81, "unit": "% UTC"},
      {"measurement": "Antiproliferative effect (cell proliferation, luminescence)", "setting": "SNU-1076 cells; 5 μM", "value": 81, "unit": "% UTC"},
      {"measurement": "Antiproliferative effect (cell proliferation, luminescence)", "setting": "SCC-4 cells; 0.04 μM", "value": 82, "unit": "% UTC"},
      {"measurement": "Antiproliferative effect (cell proliferation, luminescence)", "setting": "SCC-4 cells; 0.2 μM", "value": 60, "unit": "% UTC"},
      {"measurement": "Antiproliferative effect (cell proliferation, luminescence)", "setting": "SCC-4 cells; 1 μM", "value": 21, "unit": "% UTC"},
      {"measurement": "Antiproliferative effect (cell proliferation, luminescence)", "setting": "SCC-4 cells; 5 μM", "value": 11, "unit": "% UTC"},
      {"measurement": "human Yap1 mRNA expression", "setting": "Yap1 mRNA [2]; 0.04 μM", "value": 39, "unit": "% UTC"},
      {"measurement": "human Yap1 mRNA expression", "setting": "Yap1 mRNA [2]; 0.2 μM", "value": 10, "unit": "% UTC"},
      {"measurement": "human Yap1 mRNA expression", "setting": "Yap1 mRNA [2]; 1 μM", "value": 4, "unit": "% UTC"},
      {"measurement": "human Yap1 mRNA expression", "setting": "Yap1 mRNA [2]; 5 μM", "value": 2, "unit": "% UTC"},
      {"measurement": "Antiproliferative effect (cell proliferation, luminescence)", "setting": "SCC-15 cells; 0.04 μM", "value": 72, "unit": "% UTC"},
      {"measurement": "Antiproliferative effect (cell proliferation, luminescence)", "setting": "SCC-15 cells; 0.2 μM", "value": 54, "unit": "% UTC"},
      {"measurement": "Antiproliferative effect (cell proliferation, luminescence)", "setting": "SCC-15 cells; 1 μM", "value": 42, "unit": "% UTC"},
      {"measurement": "Antiproliferative effect (cell proliferation, luminescence)", "setting": "SCC-15 cells; 5 μM", "value": 32, "unit": "% UTC"},
      {"measurement": "human Yap1 mRNA expression", "setting": "Yap1 mRNA [3]; 0.04 μM", "value": 89, "unit": "% UTC"},
      {"measurement": "human Yap1 mRNA expression", "setting": "Yap1 mRNA [3]; 0.2 μM", "value": 53, "unit": "% UTC"},
      {"measurement": "human Yap1 mRNA expression", "setting": "Yap1 mRNA [3]; 1 μM", "value": 18, "unit": "% UTC"},
      {"measurement": "human Yap1 mRNA expression", "setting": "Yap1 mRNA [3]; 5 μM", "value": 5, "unit": "% UTC"},
      {"measurement": "Antiproliferative effect (cell proliferation, luminescence)", "setting": "BICR-22 cells; 0.04 μM", "value": 55, "unit": "% UTC"},
      {"measurement": "Antiproliferative effect (cell proliferation, luminescence)", "setting": "BICR-22 cells; 0.2 μM", "value": 37, "unit": "% UTC"},
      {"measurement": "Antiproliferative effect (cell proliferation, luminescence)", "setting": "BICR-22 cells; 1 μM", "value": 29, "unit": "% UTC"},
      {"measurement": "Antiproliferative effect (cell proliferation, luminescence)", "setting": "BICR-22 cells; 5 μM", "value": 19, "unit": "% UTC"},
      {"measurement": "human Yap1 mRNA expression", "setting": "Yap1 mRNA [4]; 0.08 μM", "value": 32, "unit": "% UTC"},
      {"measurement": "human Yap1 mRNA expression", "setting": "Yap1 mRNA [4]; 0.4 μM", "value": 12, "unit": "% UTC"},
      {"measurement": "human Yap1 mRNA expression", "setting": "Yap1 mRNA [4]; 2 μM", "value": 8, "unit": "% UTC"},
      {"measurement": "human Yap1 mRNA expression", "setting": "Yap1 mRNA [4]; 10 μM", "value": 7, "unit": "% UTC"}
    ]}
  ]
}
